Measured values as given in publication PMC5384759 (ACS Chemical Neuroscience, 2016).
Where two headings read alike, the source gives them in different places. Values belong to the molecule of their own block, whether it stands above or below them.

How the values were obtained:
[1] = format: in vivo, CD-1 mice; conditions: for half-life / AUC: female, CD-1, mouse, ip; for AUC: area under the concentration-time curve
[2] = format: in vivo, CD-1 mice
[3] = CIT metabolism in fetal liver microsomal preparations; format: in vitro ADME, mice; conditions: 2 h incubation
[4] = CIT metabolism in placental microsomal preparations; format: in vitro ADME, mice; conditions: E14 and E18, 500 ng/mL CIT, 2 h
[5] = cited from earlier work
[6] = Ex vivo transplacental transfer of CIT and DCIT; format: in vitro ADME, mice
[7] = patients, racemic CIT; cited from earlier work
SERT = conditions: read-out: inhibitory constant (Ki) of SERT-mediated 5-HT uptake; cited from earlier work
[8] = nonpregnant mice, fixed dose 0.6 mg CIT ip, serum
[9] = pregnant mice GD14, weight-adjusted dose 20 mg/kg CIT ip, maternal serum
[10] = pregnant mice GD18, weight-adjusted dose 20 mg/kg CIT ip, maternal serum
[11] = pregnant mice GD18FD, fixed dose 0.6 mg CIT ip, maternal serum

increase in AUC in the GD18 group over the GD18FD dams ([1]; 20 mg/kg vs fixed 0.6 mg CIT ip, dose increased by 100%): 141%
half-life ([1]; maternal serum, 0.6 mg): 0.93 ± 0.06 h
AUC ([1]; maternal serum, 0.6 mg, pregnant mice GD18FD, fixed dose 0.6 mg CIT ip): 927 ± 28 ng·h/mL
half-life ([1]; maternal serum, 20 mg/kg): 1.08 ± 0.07 h
half-life ([1]; serum, 0.6 mg): 1.06 ± 0.04 h
AUC ([1]; serum, 0.6 mg, nonpregnant mice, fixed dose 0.6 mg CIT ip): 1230 ± 39 ng·h/mL
half-life ([1]; serum, 20 mg/kg): 1.05 ± 0.03 h
reduction in the AUC of serum CIT in GD18FD dams compared to nonpregnant mice ([1]; fixed dose 0.6 mg CIT ip): 25%
CIT absorption phase ([1]; nonpregnant mice, fixed dose 0.6 mg CIT ip): 1.67
C0, peak concentration [1, 8]: 2050 ± 36 ng/mL
CL, clearance [1, 8]: 486 ± 9 mL·h
VD, volume of distribution [1, 8]: 29.3 ± 2.3 mL
AUCdn, dose-normalized AUC [1, 9]: 1.45 ± 0.10 (ng × h/mL)μg
C0, peak concentration [1, 9]: 2278 ± 31 ng/mL
CL, clearance [1, 9]: 689 ± 15 mL·h
VD, volume of distribution [1, 9]: 41.7 ± 2.5 mL
AUCdn, dose-normalized AUC [1, 10]: 1.86 ± 0.20 (ng × h/mL)μg
C0, peak concentration [1, 10]: 2353 ± 33 ng/mL
VD, volume of distribution [1, 10]: 50.9 ± 2.0 mL
CIT absorption phase ([1]; pregnant mice GD18FD, fixed dose 0.6 mg CIT ip): 1.76
AUCdn, dose-normalized AUC [1, 11]: 1.48 ± 0.21 (ng × h/mL)μg
C0, peak concentration [1, 11]: 1667 ± 38 ng/mL
CL, clearance [1, 11]: 647 ± 20 mL·h
VD, volume of distribution [1, 11]: 36.0 ± 2.6 mL
increase in VD as gestation advanced from GD14 to GD18 ([1]; weight-adjusted dose 20 mg/kg CIT ip): 22%
time of peak fetal serum CIT concentration following maternal drug injection ([2]; E14 and E18 fetuses, maternal 20 mg/kg CIT ip): 15 min
DCIT generation from fetal liver microsomes ([3]; E14, 500 ng/mL CIT): no measurable DCIT generation
SMILES: CN(C)CCCC1(c2ccc(F)cc2)OCc2cc(C#N)ccc21 (racemic) [CIT, (±)-citalopram]
DCIT generation from fetal liver microsomes ([3]; E18, 500 ng/mL CIT): significant rate of CIT to DCIT conversion
CIT to DCIT metabolic capacity of placental microsomes [4]: no significant CIT to DCIT metabolic capacity

time to peak DCIT concentration in fetal serum ([2]; E14, after maternal 20 mg/kg CIT ip): 1 h
time to peak DCIT concentration in fetal serum ([2]; E18, after maternal 20 mg/kg CIT ip): 2.5 h
DCIT in fetal eluate during placental perfusion with CIT (placental metabolism) ([6]; E18 placenta perfused with 500 ng/mL CIT, 10 min intervals over 120 min): not detected
transplacental transfer efficiency of DCIT relative to CIT (fold less efficient) ([6]; ex vivo perfusion, E18 placentas): ~2 fold
SMILES: CNCCCC1(c2ccc(F)cc2)OCc2cc(C#N)ccc21 (stereo not drawn) [DCIT, desmethylcitalopram]
partition coefficient [5]: 0.28
mean plasma S/R enantiomer ratio [7]: 0.7
Ki (SERT): 14 nM
